Reference: patent publication US4925835A, “Aziridinyl putrescine containing compositions and their uses in treating prostate cancer” (priority 1987, dated 1990)
Read-outs that look alike come from different tables or passages of the source.

Columns and labels:
[1] = tested on: PC-3 human prostatic carcinoma cell line; experiment: cells; format: cell-based
Procedure: FIG. 3. Effect of AZP on the growth of PC-3 cells with or without DFMO pretreatment. PC-3 cells (3×10^4) were plated in 60-mm^2 Petri dish in RPMI 1640-10% FCS and allowed to attach overnight. The following day the medium was aspirated and replaced with RPMI 1640, 10% FCS, 100 μM aminoguanidine with or without 1 mm DFMO. Forty-eight h later the medium was aspirated, the dishes were rinsed once with HBSS, and the cells were incubated with RPMI 1640-10% FCS-100 μM aminoguanidine with or without 25 μM AZP for 1 h. Following the 1-h incubation the medium was aspirated, the plates were rinsed twice with HBSS, and the incubation was continued with fresh RPMI 1640-10% FCS-100 μM aminoguanidine. At the indicated times following initial plating the cells were lifted from the plate by trypsinization and were examined for their ability to exclude trypan blue. Total cell counts were obtained with the aid of a hemocytometer, and the completeness of the removal of the cells from the dish was verified by the examination of each dish with the inverted microscope. , control; Δ, DFMO; .circle., AZP; .quadrature., DFMO+AZP. Points, means; bars, SE.
FIG. 4. Dose-effect relationship of AZP on the growth on PC-3 prostatic cancer cells. PC-3 cells (3×10^4) were plated in RPMI 1640-10% FCS in 60-mm^2 Petri dishes and allowed to attach overnight. The following day the medium was aspirated and replaced with RPMI 1640-10% FCS-100 μM aminoguanidine with or without 1 mm DFMO. Forty-eight h later the medium was aspirated, and the cells were rinsed once with HBSS and replaced with RPMI 1640-10% FCS-100 μM aminoguanidine with or without the indicated μM concentrations of AZP. After a 1-h incubation the medium was aspirated, the cells were rinsed twice with HBSS, and the incubation was continued with fresh RPMI 1640-10% FCS-100 μM aminoguanidine. Eight days following plating the cells were lifted from the plates by trypsinization and were counted with the aid of a hemocytometer and expressed as a percentage of control (100% without DFMO, 212±31×10^4; 100% with DFMO pretreatment, 219±25× 10^4 cells, respectively). , DFMO pretreated; .circle., without DFMO.
Assays of cell growth were performed by plating 3×10^4 PC-3 cells in RPMI 1640 medium with 10% FCS and allowing them to attach overnight. The following morning the medium was replaced with incubation medium consisting of RPMI 1640, 10% FCS, 100 μM aminoguanidine, 100 units/ml of penicillin, 100 μg/ml of streptomycin, and 2 mM glutamine, with or without 1 mM difluoromethylornithine. Two days later the medium was aspirated and replaced with or without 1-(4-aminobutyl) aziridine at the designated concentration usually for 1 h or for the designated length of time. Following the 1-h incubation, the medium of all groups was aspirated and the dishes were rinsed with HBSS and replaced with fresh incubation medium. Either daily or 8 days following plating, the Petri dishes were rinsed with HBSS and the cells were lifted from the plate by trypsinization. The dishes were examined for completeness of cell removal by examination with an inverted microscope. The cells were counted with a Zeiss microscope using a hemocytometer. Tumor cell population doubling time was determined by ploting the natural logarithm (ln) of the number of cells versus the days following plating. The slope of this line was determined using the Memorial Sloan-Kettering Cancer Center Clin computer system statistical analysis package. Doubling time (DT) was determined as ln 2/slope=DT. Statistical differences in cell number between groups were determined by Student's t statistic with the aid of the Memorial Sloan-Kettering Cancer Center Clin computer using the statistics program.
^a Thirty thousand PC3 cells were plated in 60mm^2 Petri dishes i
RPMI 164010% FCS. The next day the medium was aspirated and replaced with
RPMI 164010% FCS medium with 100 μM aminoguanidine with or without 1 m
DFMO. Fortyeight h later the medium was aspirated. […]

PC-3 cells = experiment: Polyamine assays: intracellular polyamine levels by HPLC; format: cell-based, human; conditions: PC-3, ±1 mM DFMO 48 h, then ±25 μM AZP 1 h
Procedure: One h later the medium was aspirated and the cells were rinsed with cold HBSS. Three plates were treated with dilute trypsin to release the cells from the plate and provide a single cell suspension. The viability of the cells and the number of cells per plate were determined by trypan blue exclusion and counting with the aid of a hemocytometer. […] The other three plates were extracted with 0.4N perchloric acid and the polyamines were measured by fluorescence following postcolumn derivatization with o-phthalaldehyde following separation by the reverse phase ion-pair high performance liquid chromatography procedure of Wagner et al., J. Chomatogr., 227: 349-368, 1982.
In Table 2 are listed the values for the triplicate assays of the concentrations of polyamine observed in nontreated cells, cells treated with 1-(4-aminobutyl) aziridine for 1 h, cells pretreated for 48 h with 1 mM difluoromethylornithine and then incubated in drug free medium for 1 h, or cells pretreated for 48 h with difluoromethylornithine, rinsed free of difluoromethylornithine, and then incubated with 25 μM 1-(4-aminobutyl)aziridine for 1 h. All groups had cell viabilities greater than 95% and cell numbers were 4.9±0.6 (SE), 4.9±0.7, 4.8±0.4, and 4.6±0.4×10^6 cells for the control, 1-(4-aminobutyl) aziridine, difluoromethylornithine, and difluoromethylornithine+1-(4-aminobutyl) aziridine groups, respectively. The apparent amount of 1-(4-aminobutyl) aziridine in the difluoromethylornithine-treated cells was 3.7 times that of the 1-(4-aminobutyl) aziridine-only-treated cells. No N^8 -acetylspermidine, acetylputrescine, or cadaverine was detected in any group. A peak was detected at a wavelength of 254 nm in the difluoromethylornithine treatment groups that corresponds to the retention time of decarboxylated S-adenosylmethionine.
^a PC-3 cells were incubated with or without 1 mM DFMO for 48 h. Cell
were then rinsed free of DFMO and incubated for 1 h with 25 μM AZP. Th
cells were washed free of AZP by three rinses of HBSS. With one set of
triplicate plates, the cells were resuspended and counted by hemocytomete
and viability was determined by trypan dye exclusion (viability > 95%).
Another set triplicate plates was extracted with icecold perchloric acid
and filtered and the polyamine concentrations were determined by HPLC.
^b Mean ± SE for a triplicate assay. Histamine is included as a […]

normal rat prostate = experiment: In vivo antiprostatic activity, prostate wet weight; conditions: Copenhagen rats, 14 days; AZP 2 mg/kg/day by intraperitoneal infusion mini-pump, DFMO similar amount orally
Procedure: 1-(4-aminobutyl) aziridine, difluoromethylornithine, and a combination of 1-(4-aminobutyl) aziridine and difluoromethylornithine were tested in vivo for antiprostatic activity using Copenhagen rats. The normal rat prostate is often used as a model or control for drugs which are suspected of having antiprostatic cancer activity. Sloan, et al., Cancer Chemother. Rep. 59: 185-194 (1975). 1-(4-aminobutyl) aziridine, difluoromethylornithine, and a combination of 1-(4-aminobutyl) aziridine and difluoromethylornithine were administered to twenty-eight (28) Copenhagen rats for 14 days. 1-(4-aminobutyl) aziridine was administered by an infusion mini-pump implanted intraperitoneally.
Difluoromethylornithine was administered orally. The 1-(4-aminobutyl) aziridine was delivered at a rate of 2 mg/kg/day. A similar amount of difluoromethylornithine was administered orally on a daily basis. Before loading the infusion pump, the pH of 1-(4-aminobutyl) aziridine was adjusted to 7.5 with hydrochloric acid. The pump rate was 0.5 u./hr.
The prostates of the twenty-eight (28) subjects were removed, freed of fat and weighed to the nearest milligram.

[2] = tested on: human prostate cancer cell line PC-3; experiment: cells; format: cell-based
Procedure: Aziridinyl putrescine 1-(4-aminobutyl) aziridine was synthesized using the method as described by Piper, et al., J. Med. Chem. 12: 236-243 (1968). Cells of the human prostate cancer cell line PC-3 were used.
10^3 PC-3 human cells were plated in RPMI 1640 with 10% FCS/3 ml in 60 mm^2 petri dishes. The cell plates were incubated either with, or without difluoromethylornithine for 48 hours. This was followed by aspiration, and replacement with a medium containing either no additives, 50 uM 1-(4-aminobutyl) aziridine, 1 mM putrescine, or both 50 uM 1-(4-aminobutyl) aziridine and 1 mM putrescine. The media were aspirated after 1 hour, and replaced with a drug free medium. Incubation continued for 5 days.
*Represents mean number of colonies ± one standard deviation of
triplicate assay. Number in parenthesis is percent of control.

[3] = tested on: uptake of [14C]putrescine into PC-3 cells; format: cell-based, human
Procedure: FIG. 1. Lineweaver-Burk plot of the uptake of [^14 C]putrescine by DFMO-pretreated cells. The ordinate is expressed as 1/pmol/15 min. The abscissa is expressed as 1 μM concentrations containing from 16 to 1.0 μM [^14 C]putrescine.
Fifty thousand PC-3 cells were plated in 12-well plates and 18 h later the incubation medium was removed and replaced with 1 ml or RPMI 1640 medium containing 25 mM 4-(2-hydroxyethyl)-1-piperazineethansulfonic acid buffer, 100 μM aminoguanidine, and 10% FCS. Forty-eight h later the medium was replaced with medium which contained [^14 C]putrescine in concentrations ranging from 16 to 1.0 μM with or without 5 1M 1-(4-aminobutyl) aziridine. Following incubation at 37° C. for 15 min the [^14 C]putrescine-containing medium was aspirated, and the cells were rinsed rapidly 4 times with HBSS. Following the last rinse, 1.0 ml of a solution of 0.1N NaOH was added and after a 2-h incubation at room temperature a 0.2-ml aliquot was added to 1 ml of 2% glacial acidic acid and 10 ml of Scintiverse 1 scintillation cocktail and the radioactive disintegrations were determined with a Packard Tri-Carb 300 scintillation spectrophotometer. Counting efficiency for ^14 C was 80%. Kinetic analysis of uptake was performed by graphic methods as described by Dixon and Webb, Enzymes, p. 322, New York Academic Press (1959).
In FIG. 1 a Lineweaver-Burk plot of the uptake of [^14 C]-putrescine into the PC-3 cells is presented and was used to determine the Km (intercept x axis) and Vmax (intercept y axis) for putrescine.

[4] = PC-3, 48 h with or without DFMO, then 1 h with 50 uM AZP and/or 1 mM putrescine, 5 days drug free

| Compound | Cells per dish on day 8 following plating ([1]; PC-3, 3×10^4 plated, ±1 mM DFMO 48 h, ±25 μM AZP 1 h, mean±SD of triplicates) | Doubling time ([1]; PC-3, 25 μM AZP 1 h or 1 mM DFMO 48 h, mean±SE) [days] | Cell numbers at end of treatment (PC-3 cells; SE) | Polyamine levels: Hist (histamine, nonpolyamine control) (PC-3 cells; mean ± SE) [pmol/10^6] | Polyamine levels: NaSpm (N-acetylspermine) (PC-3 cells; mean ± SE) [pmol/10^6] | Polyamine levels: PUT (putrescine) (PC-3 cells; mean ± SE) [pmol/10^6] | Polyamine levels: Spd (spermidine) (PC-3 cells; mean ± SE) [pmol/10^6] | Polyamine levels: Spm (spermine) (PC-3 cells; mean ± SE) [pmol/10^6] | Dorsal Lateral Prostate, milligram wet weight (SEM) (normal rat prostate) [milligram] | Ventral Prostate, milligram wet weight (SEM) (normal rat prostate) [milligram] | Inhibition of proliferation of human prostate cancer cells in culture ([2]; AZP at 50 uM, from Table 1) | Clonogenic survivors (mean number of colonies ± one standard deviation) [2, 4] [colonies] | Clonogenic survivors, percent of control [2, 4] [%] | Km [3] [µM] | Vmax of putrescine uptake [3] [pmol/15 min/10^5 cells] | Vmax of putrescine uptake ([3]; PC-3 cells, without difluoromethylornithine pretreatment) [pmol/15 min/10^5 cells] | Cell no. [1] | Growth-inhibitory activity toward PC-3 cells (in words) [1] | Cell no. as a percentage of control ([1]; pc-3 cells, 11520 min) [%] |
| --- | --- | --- | --- | --- | --- | --- | --- | --- | --- | --- | --- | --- | --- | --- | --- | --- | --- | --- | --- |
| NCCCC(N)(C(=O)O)C(F)F (stereo not shown) [DFMO, difluoromethylornithine, reference compound] | 340±54 ×10^4 cells per dish | 1.14 ± 0.05 | 4.8±0.4 ×10^6 cells | 98 ± 26 | 130 ± 10 | 192 ± 34 | 171 ± 66 | 3046 ± 554 | 445 ± 32 | 377 ± 16 | little effect | 549 ± 57 | 94 |  |  |  |  |  |  |
| NCCCCN [PUT, 1,4-butanediamine, reference compound] |  |  |  |  |  |  |  |  |  |  |  |  |  | 2.5 | 190 | 40 | 438 ± 16 × 10^-4 | no growth-inhibitory activity | 106 |
